Reference: patent publication US10167262B2, “Herbicidal substituted 3-arylpyrazoles” (FMC CORPORATION, priority 2014, dated 2019)

Legend:
Assay type in all cases: in vivo
[1] = test system: barnyardgrass (Echinochloa crus-galli); test: Test A pre-/postemergence greenhouse herbicide test, visual injury rating 0-100
Procedure, shortened: (§1)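 Each species was treated both before emergence, via soil spray onto a loam–sand blend, and after emergence at the one- to two-leaf stage. Plants stayed in the greenhouse around 10 days before visual injury assessment.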

corn (Zea mays) [2] = test: as above
Procedure, shortened: as §1

[3] = test system: giant foxtail (Setaria faberii); test: as above
Procedure, shortened: as §1

[4] = test system: large (Lg) crabgrass (Digitaria sanguinalis); test: as above
Procedure, shortened: as §1

[5] = test system: morningglory (Ipomoea spp.); test: as above
Procedure, shortened: as §1

[6] = test system: pigweed (Amaranthus retroflexus); test: as above
Procedure, shortened: as §1

[7] = test system: velvetleaf (Abutilon theophrasti); test: as above
Procedure, shortened: as §1

[8] = test system: wheat (Triticum aestivum); test: as above
Procedure, shortened: as §1

[9] = test system: Italian ryegrass (Lolium multiflorum); test: Test C pre-/postemergence greenhouse test, plant response rating 0-100; conditions: Postemergence; for Plant response rating, Ryegrass, Italian: scale 0 to 100
Procedure, shortened: (§2)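 Pre- and postemergence greenhouse test: seeds sown in loam/sand and treated preemergence, or plants at 2–18 cm (1- to 4-leaf stage) in peat-based medium sprayed postemergence, with compounds in non-phytotoxic solvent plus surfactant. Visual rating versus untreated controls after 13–15 days, 0 (no effect) to 100 (complete control).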

corn (Zea mays) [10] = test: as above; conditions: Postemergence; for Plant response rating, Corn: scale 0 to 100
Procedure, shortened: as §2

[11] = test system: pigweed (Amaranthus retroflexus); test: as above; conditions: Postemergence; for Plant response rating, Pigweed: scale 0 to 100
Procedure, shortened: as §2

[12] = test system: ragweed (common ragweed, Ambrosia elatior); test: as above; conditions: Postemergence; for Plant response rating, Ragweed: scale 0 to 100
Procedure, shortened: as §2

[13] = test system: velvetleaf (Abutilon theophrasti); test: as above; conditions: Postemergence; for Plant response rating, Velvetleaf: scale 0 to 100
Procedure, shortened: as §2

Clc1cc(Cl)cc(-c2n[nH]cc2C(=NNc2ccccc2Cl)c2ccccc2)c1 [Compound 66]
Plant response rating (0 to 100 scale), Barnyardgrass ([1]; Postemergence, 1000 g ai/ha): 0
Plant response rating (0 to 100 scale), Barnyardgrass ([1]; Preemergence, 1000 g ai/ha): 0
Plant response rating (0 to 100 scale), Corn (corn (Zea mays) [2]; Postemergence, 1000 g ai/ha): 0
Plant response rating (0 to 100 scale), Corn (corn (Zea mays) [2]; Preemergence, 1000 g ai/ha): 0
Plant response rating (0 to 100 scale), Foxtail, Giant ([3]; Postemergence, 1000 g ai/ha): 0
Plant response rating (0 to 100 scale), Foxtail, Giant ([3]; Preemergence, 1000 g ai/ha): 0
Plant response rating (0 to 100 scale), Crabgrass, Large ([4]; Postemergence, 1000 g ai/ha): 0
Plant response rating (0 to 100 scale), Crabgrass, Large ([4]; Preemergence, 1000 g ai/ha): 0
Plant response rating (0 to 100 scale), Morningglory ([5]; Postemergence, 1000 g ai/ha): 0
Plant response rating (0 to 100 scale), Morningglory ([5]; Preemergence, 1000 g ai/ha): 0
Plant response rating (0 to 100 scale), Pigweed ([6]; Postemergence, 1000 g ai/ha): 80
Plant response rating (0 to 100 scale), Pigweed ([6]; Preemergence, 1000 g ai/ha): 80
Plant response rating (0 to 100 scale), Velvetleaf ([7]; Postemergence, 1000 g ai/ha): 90
Plant response rating (0 to 100 scale), Velvetleaf ([7]; Preemergence, 1000 g ai/ha): 80
Plant response rating (0 to 100 scale), Wheat ([8]; Postemergence, 1000 g ai/ha): 0
Plant response rating (0 to 100 scale), Wheat ([8]; Preemergence, 1000 g ai/ha): 0
Plant response rating (0 to 100), Ryegrass, Italian ([9]; 62 g ai/ha): 0
Plant response rating (0 to 100), Ryegrass, Italian ([9]; 125 g ai/ha): 0
Plant response rating, Ryegrass, Italian ([9]; 250 g ai/ha): 0
Plant response rating, Ryegrass, Italian ([9]; 500 g ai/ha): 0
Plant response rating (0 to 100), Corn (corn (Zea mays) [10]; 62 g ai/ha): 0
Plant response rating (0 to 100), Corn (corn (Zea mays) [10]; 125 g ai/ha): 0
Plant response rating, Corn (corn (Zea mays) [10]; 250 g ai/ha): 5
Plant response rating, Corn (corn (Zea mays) [10]; 500 g ai/ha): 5
Plant response rating (0 to 100), Pigweed ([11]; 62 g ai/ha): 55
Plant response rating (0 to 100), Pigweed ([11]; 125 g ai/ha): 85
Plant response rating, Pigweed ([11]; 250 g ai/ha): 95
Plant response rating, Pigweed ([11]; 500 g ai/ha): 100
Plant response rating (0 to 100), Ragweed ([12]; 62 g ai/ha): 10
Plant response rating (0 to 100), Ragweed ([12]; 125 g ai/ha): 80
Plant response rating, Ragweed ([12]; 500 g ai/ha): 95
Plant response rating (0 to 100), Velvetleaf ([13]; 62 g ai/ha): 55
Plant response rating (0 to 100), Velvetleaf ([13]; 125 g ai/ha): 55
Plant response rating, Velvetleaf ([13]; 250 g ai/ha): 80
Plant response rating, Velvetleaf ([13]; 500 g ai/ha): 90

O=C(c1ccccc1)c1cn(S(=O)(=O)CCl)nc1-c1cc(Cl)cc(Cl)c1 [Compound 1]
Plant response rating (0 to 100 scale), Barnyardgrass ([1]; Postemergence, 125 g ai/ha): 0
Plant response rating (0 to 100 scale), Barnyardgrass ([1]; Postemergence, 500 g ai/ha): 0
Barnyardgrass plant response rating (0 = no effect, 100 = complete control) ([1]; Preemergence, 125 g ai/ha): 0
Plant response rating (0 to 100 scale), Barnyardgrass ([1]; Preemergence, 500 g ai/ha): 0
Plant response rating (0 to 100 scale), Corn (corn (Zea mays) [2]; Postemergence, 125 g ai/ha): 0
Plant response rating (0 to 100 scale), Corn (corn (Zea mays) [2]; Postemergence, 500 g ai/ha): 0
Corn plant response rating (0 = no effect, 100 = complete control) (corn (Zea mays) [2]; Preemergence, 125 g ai/ha): 0
Plant response rating (0 to 100 scale), Corn (corn (Zea mays) [2]; Preemergence, 500 g ai/ha): 0
Plant response rating (0 to 100 scale), Foxtail, Giant ([3]; Postemergence, 125 g ai/ha): 0
Plant response rating (0 to 100 scale), Foxtail, Giant ([3]; Postemergence, 500 g ai/ha): 0
Foxtail, Giant plant response rating (0 = no effect, 100 = complete control) ([3]; Preemergence, 125 g ai/ha): 0
Plant response rating (0 to 100 scale), Foxtail, Giant ([3]; Preemergence, 500 g ai/ha): 0
Plant response rating (0 to 100 scale), Crabgrass, Large ([4]; Postemergence, 125 g ai/ha): 0
Plant response rating (0 to 100 scale), Crabgrass, Large ([4]; Postemergence, 500 g ai/ha): 0
Crabgrass, Large plant response rating (0 = no effect, 100 = complete control) ([4]; Preemergence, 125 g ai/ha): 0
Plant response rating (0 to 100 scale), Crabgrass, Large ([4]; Preemergence, 500 g ai/ha): 0
Plant response rating (0 to 100 scale), Morningglory ([5]; Postemergence, 125 g ai/ha): 0
Plant response rating (0 to 100 scale), Morningglory ([5]; Postemergence, 500 g ai/ha): 0
Morningglory plant response rating (0 = no effect, 100 = complete control) ([5]; Preemergence, 125 g ai/ha): 0
Plant response rating (0 to 100 scale), Morningglory ([5]; Preemergence, 500 g ai/ha): 0
Plant response rating (0 to 100 scale), Pigweed ([6]; Postemergence, 125 g ai/ha): 80
Plant response rating (0 to 100 scale), Pigweed ([6]; Postemergence, 500 g ai/ha): 90
Pigweed plant response rating (0 = no effect, 100 = complete control) ([6]; Preemergence, 125 g ai/ha): 40
Plant response rating (0 to 100 scale), Pigweed ([6]; Preemergence, 500 g ai/ha): 80
Plant response rating (0 to 100 scale), Velvetleaf ([7]; Postemergence, 125 g ai/ha): 90
Plant response rating (0 to 100 scale), Velvetleaf ([7]; Postemergence, 500 g ai/ha): 90
Velvetleaf plant response rating (0 = no effect, 100 = complete control) ([7]; Preemergence, 125 g ai/ha): 20
Plant response rating (0 to 100 scale), Velvetleaf ([7]; Preemergence, 500 g ai/ha): 20
Plant response rating (0 to 100 scale), Wheat ([8]; Postemergence, 125 g ai/ha): 0
Plant response rating (0 to 100 scale), Wheat ([8]; Postemergence, 500 g ai/ha): 0
Wheat plant response rating (0 = no effect, 100 = complete control) ([8]; Preemergence, 125 g ai/ha): 0
Plant response rating (0 to 100 scale), Wheat ([8]; Preemergence, 500 g ai/ha): 0
Plant response rating (0 to 100), Ryegrass, Italian ([9]; 62 g ai/ha): 0
Plant response rating (0 to 100), Ryegrass, Italian ([9]; 125 g ai/ha): 0
Plant response rating, Ryegrass, Italian ([9]; 250 g ai/ha): 0
Plant response rating (0 to 100), Corn (corn (Zea mays) [10]; 31 g ai/ha): 0
Plant response rating (0 to 100), Corn (corn (Zea mays) [10]; 62 g ai/ha): 0
Plant response rating (0 to 100), Corn (corn (Zea mays) [10]; 125 g ai/ha): 0
Plant response rating, Corn (corn (Zea mays) [10]; 250 g ai/ha): 0
Plant response rating (0 to 100), Pigweed ([11]; 62 g ai/ha): 98
Plant response rating (0 to 100), Pigweed ([11]; 125 g ai/ha): 100
Plant response rating, Pigweed ([11]; 250 g ai/ha): 100
Plant response rating (0 to 100), Ragweed ([12]; 62 g ai/ha): 40
Plant response rating (0 to 100), Ragweed ([12]; 125 g ai/ha): 50
Plant response rating, Ragweed ([12]; 250 g ai/ha): 65
Plant response rating (0 to 100), Velvetleaf ([13]; 62 g ai/ha): 70
Plant response rating (0 to 100), Velvetleaf ([13]; 125 g ai/ha): 75
Plant response rating, Velvetleaf ([13]; 250 g ai/ha): 80
